Literature values, collected in US20060280819A1, “Ellagic acid food supplement prepared from pomegranate seed” (priority 2005, published 2006).

Columns and labels:
[1] = system: breast, pancreas, esophageal, skin, colon and prostate cancer cells
[2] = system: p53 gene; details: clinical tests
[3] = system: cancer cells; details: lab tests
[4] = system: normal healthy cells; details: lab tests

- effect on normal healthy cells [4]: no change
SMILES: O=c1oc2c(O)c(O)cc3c(=O)oc4c(O)c(O)cc1c4c23 [ellagic acid]
- time to G-arrest (inhibiting and stopping mitosis-cancer cell division) [1]: ≤ 48 h
- time to apoptosis (normal cell death) [1]: ≤ 72 h
- effect on destruction of the p53 gene by cancer cells [2]: prevents the destruction of the p53 gene
- apoptosis (cell death) of cancer cells [3]: causes apoptosis
